Key:
Assay in all cases: relative viability (nuclei count vs DMSO), 5 days (fraction); higher = more cells survive
Ruxolitinib + Bortezomib = compound: N#CC[C@H](C1CCCC1)n1cc(-c2ncnc3[nH]ccc23)cn1 [Ruxolitinib] + CC(C)C[C@H](NC(=O)[C@H](Cc1ccccc1)NC(=O)c1cnccn1)B(O)O [Bortezomib] (partner 0.002 µM)
In short: (§1)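 Lung cancer cell lines in 1536-well plates were dosed by pin tool the day after seeding, either with one drug alone or with a fixed anchor-drug dose plus five library-drug doses (not always all listed) in √10 steps. After 5 days, cells were fixed and their nuclei stained in one step (final 0.05% Triton X-100, 1% formaldehyde, 1 ug/ml Hoechst), then counted on 4× images. Relative viability is the nuclei count in treated wells divided by that in vehicle wells. Values are medians of duplicate plates.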

VE-821 + Decitabine = compound: CS(=O)(=O)c1ccc(-c2cnc(N)c(C(=O)Nc3ccccc3)n2)cc1 [VE-821] + Nc1ncn([C@H]2C[C@H](O)[C@@H](CO)O2)c(=O)n1 [Decitabine] (partner 2 µM)
In short: as §1

VE-821 + Crizotinib = compound: CS(=O)(=O)c1ccc(-c2cnc(N)c(C(=O)Nc3ccccc3)n2)cc1 [VE-821] + C[C@@H](Oc1cc(-c2cnn(C3CCNCC3)c2)cnc1N)c1c(Cl)ccc(F)c1Cl [Crizotinib] (partner 1 µM)
In short: as §1

VE-821 + Linsitinib = compound: CS(=O)(=O)c1ccc(-c2cnc(N)c(C(=O)Nc3ccccc3)n2)cc1 [VE-821] + C[C@]1(O)C[C@@H](c2nc(-c3ccc4ccc(-c5ccccc5)nc4c3)c3c(N)nccn32)C1 [Linsitinib] (partner 1 µM)
In short: as §1

Row | Cell Line | relative viability (Ruxolitinib + Bortezomib; first compound 0.08 µM) | relative viability (Ruxolitinib + Bortezomib; first compound 0.253 µM) | relative viability (Ruxolitinib + Bortezomib; first compound 0.8 µM) | relative viability (Ruxolitinib + Bortezomib; first compound 2.53 µM) | relative viability (Ruxolitinib + Bortezomib; first compound 8 µM) | relative viability (VE-821 + Decitabine; first compound 0.08 µM) | relative viability (VE-821 + Decitabine; first compound 0.253 µM) | relative viability (VE-821 + Decitabine; first compound 0.8 µM) | relative viability (VE-821 + Decitabine; first compound 2.53 µM) | relative viability (VE-821 + Decitabine; first compound 8 µM) | relative viability (VE-821 + Crizotinib; first compound 0.08 µM) | relative viability (VE-821 + Crizotinib; first compound 0.253 µM) | relative viability (VE-821 + Crizotinib; first compound 0.8 µM) | relative viability (VE-821 + Crizotinib; first compound 2.53 µM) | relative viability (VE-821 + Crizotinib; first compound 8 µM) | relative viability (VE-821 + Linsitinib; first compound 0.08 µM) | relative viability (VE-821 + Linsitinib; first compound 0.253 µM) | relative viability (VE-821 + Linsitinib; first compound 0.8 µM) | relative viability (VE-821 + Linsitinib; first compound 2.53 µM) | relative viability (VE-821 + Linsitinib; first compound 8 µM)
1 | COR-L 105 | 0.925 | 0.949 | 0.826 | 0.536 | 0.647 | 0.666 | 0.579 | 0.58 | 0.613 | 0.518 | 1.03 | 0.678 | 0.582 | 0.546 | 0.385 | 0.944 | 0.885 | 0.75 | 0.776 | 0.496
2 | Calu-6 | 1.02 | 0.93 | 1.18 | 0.921 | 0.557 |  |  |  |  |  | 0.97 | 0.844 | 0.795 | 0.684 | 0.466 | 1 | 0.839 | 0.83 | 1.13 | 0.942
3 | ChaGo-K-1 |  | 0.929 | 0.94 | 0.976 | 0.701 | 0.55 | 0.493 | 0.506 | 0.537 | 0.559 | 1.18 | 1.18 | 1 | 1.17 | 0.989 |  |  |  |  | 
4 | EBC-1 | 0.592 | 0.49 | 0.597 | 0.42 | 0.361 |  |  |  |  |  | 0.181 | 0.189 | 0.155 | 0.179 | 0.202 | 0.908 | 0.901 | 0.85 | 1.16 | 0.808
5 | EKVX | 0.785 | 0.994 | 0.986 | 0.989 | 0.929 | 0.406 | 0.366 | 0.322 | 0.327 | 0.38 | 1.25 | 0.93 | 0.849 | 0.958 | 0.878 | 1.2 | 0.893 | 0.643 | 0.932 | 0.681
6 | EMC-BAC-2 | 1.12 | 1.06 | 1.15 | 1.06 | 0.811 | 1.07 | 0.961 | 0.996 | 0.969 | 0.826 | 0.899 | 0.763 | 0.737 | 0.731 | 0.651 | 0.881 | 0.817 | 0.849 | 0.852 | 0.841
7 | EPLC-272H | 0.846 | 0.976 | 0.984 | 0.937 | 0.734 | 0.395 | 0.359 | 0.404 | 0.408 | 0.345 | 1.04 | 0.853 | 0.923 | 1.19 | 0.906 | 1.28 | 0.928 | 1.22 | 1.6 | 1.11
8 | H3255 |  | 0.595 | 0.836 | 0.6 | 0.598 | 0.655 | 0.551 | 0.614 | 0.752 | 0.596 | 1.05 | 0.981 | 0.761 | 1.03 | 0.847 | 1.08 | 1.05 | 0.914 | 1.06 | 0.982
